The subject of assay [1] is MDA-MB-231. In words: drug sensitivity score (DSS), cytotoxicity CellTox Green; higher = more cytotoxic; extreme values may be limits of the assay. To be noted: 72 h.
The subject of assay [2] is MDA-MB-231. Kind of assay: drug sensitivity score (DSS), cell viability CellTiter-Glo; higher = more sensitive; extreme values may be limits of the assay. To be noted: 72 h.

Each structure is given as a SMILES string.
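For drug sensitivity score (DSS), cytotoxicity CellTox Green in this document: DSS summarises each dose–response curve by combining IC50, EC50, maximal inhibition and efficacy across drug concentrations.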

As for `CON(C)C(=O)N1N=C(c2cc(F)ccc2F)S[C@@]1(CCCN)c1ccccc1` [Filanesib], the drug sensitivity score was 14.1 DSS with MDA-MB-231 [1] (shRNA: shPPFIA1_1), 9.3 DSS in the assay with MDA-MB-231 [1] (shRNA: shScramble), 0 DSS in the assay with MDA-MB-231 [2] (shRNA: shPPFIA1_1) and 8.4 DSS in the assay with MDA-MB-231 [2] (shRNA: shScramble).

Regarding `COc1c(C)cnc(Cn2cnc3c(Cl)nc(N)nc32)c1C` [BIIB021], the drug sensitivity score stood at 3.1 DSS with MDA-MB-231 [1] (shRNA: shPPFIA1_1), 2.8 DSS with MDA-MB-231 [1] (shRNA: shScramble), 10.8 DSS in the assay on MDA-MB-231 [2] (shRNA: shPPFIA1_1) and 15.9 DSS in the assay with MDA-MB-231 [2] (shRNA: shScramble).

For `O=C(CCCCCCC(=O)Nc1ccc([C@H]2O[C@@H](CSc3nc(-c4ccccc4)c(-c4ccccc4)o3)C[C@@H](c3ccc(CO)cc3)O2)cc1)NO` [Tubacin], the drug sensitivity score in the assay on MDA-MB-231 [1] (shRNA: shPPFIA1_1) came to 7.2 DSS; with MDA-MB-231 [1] (shRNA: shScramble) it was 2.2 DSS; in the assay on MDA-MB-231 [2] (shRNA: shPPFIA1_1) it was 7.3 DSS; in the assay on MDA-MB-231 [2] (shRNA: shScramble), 5 DSS.

For `CN(CC(=O)N(Cc1ccc(C2CCCCC2)cc1)c1ccc(C(=O)O)cc1)S(=O)(=O)c1c(F)c(F)c(F)c(F)c1F` [SH-4-54], the drug sensitivity score with MDA-MB-231 [1] (shRNA: shPPFIA1_1) came to 7.3 DSS; in the assay with MDA-MB-231 [1] (shRNA: shScramble), 7.7 DSS; in the assay on MDA-MB-231 [2] (shRNA: shPPFIA1_1), 3.8 DSS; in the assay with MDA-MB-231 [2] (shRNA: shScramble), 5.7 DSS.

For the compound `CC[C@@H]1C(=O)N(C)c2cnc(Nc3ccc(C(=O)N[C@H]4CC[C@H](N5CCN(CC6CC6)CC5)CC4)cc3OC)nc2N1C(C)C` [Volasertib], the drug sensitivity score is 0 DSS in the assay with MDA-MB-231 [1] (shRNA: shPPFIA1_1), 0 DSS in the assay on MDA-MB-231 [1] (shRNA: shScramble), 0 DSS with MDA-MB-231 [2] (shRNA: shPPFIA1_1) and 6.6 DSS with MDA-MB-231 [2] (shRNA: shScramble).

Consider `S=c1[nH]cnc2nc[nH]c12` [Mercaptopurine], for which the drug sensitivity score in the assay with MDA-MB-231 [1] (shRNA: shPPFIA1_1) was found to be 0 DSS; in the assay on MDA-MB-231 [1] (shRNA: shScramble) it was 0 DSS; in the assay on MDA-MB-231 [2] (shRNA: shPPFIA1_1), 5.1 DSS; in the assay with MDA-MB-231 [2] (shRNA: shScramble), 12 DSS.

As for `CC(C)Nc1cc(-c2c[nH]c(C(=O)N[C@H](CO)c3cccc(Cl)c3)c2)c(Cl)cn1` [Ulixertinib], the drug sensitivity score came to 0 DSS in the assay with MDA-MB-231 [1] (shRNA: shPPFIA1_1), 2.7 DSS in the assay on MDA-MB-231 [1] (shRNA: shScramble), 0 DSS with MDA-MB-231 [2] (shRNA: shPPFIA1_1) and 2.1 DSS with MDA-MB-231 [2] (shRNA: shScramble).

As for `CC(C)N(CCCNC(=O)Nc1ccc(C(C)(C)C)cc1)C[C@H]1O[C@@H](n2cc(Br)c3c(N)ncnc32)[C@H](O)[C@@H]1O` [SGC0946], the drug sensitivity score in the assay with MDA-MB-231 [1] (shRNA: shPPFIA1_1) was determined as 5.5 DSS; in the assay on MDA-MB-231 [1] (shRNA: shScramble), 0.6 DSS; in the assay with MDA-MB-231 [2] (shRNA: shPPFIA1_1) it was 5 DSS; in the assay with MDA-MB-231 [2] (shRNA: shScramble), 1.5 DSS.

On to `COc1ccc(Cl)c(Nc2nc3ccccc3nc2NS(=O)(=O)c2cccc(NC(=O)C(C)(C)N)c2)c1` [Pilaralisib], for which the drug sensitivity score was found to be 0.9 DSS in the assay with MDA-MB-231 [1] (shRNA: shPPFIA1_1), 0 DSS with MDA-MB-231 [1] (shRNA: shScramble), 0 DSS in the assay with MDA-MB-231 [2] (shRNA: shPPFIA1_1) and 0.9 DSS with MDA-MB-231 [2] (shRNA: shScramble).

With `CC(C)(C)c1cnc(CSc2cnc(NC(=O)C3CCNCC3)s2)o1` [SNS-032], the drug sensitivity score in the assay with MDA-MB-231 [1] (shRNA: shPPFIA1_1) came out at 10.5 DSS; with MDA-MB-231 [1] (shRNA: shScramble) it was 6.3 DSS; in the assay on MDA-MB-231 [2] (shRNA: shPPFIA1_1), 5.8 DSS; with MDA-MB-231 [2] (shRNA: shScramble) it was 13.1 DSS.

Turning to `Cc1cc(C)c(/C=C2\C(=O)Nc3ccccc32)[nH]1` [Semaxanib], the drug sensitivity score in the assay with MDA-MB-231 [1] (shRNA: shPPFIA1_1) was 0.2 DSS; in the assay on MDA-MB-231 [1] (shRNA: shScramble) it was 3.5 DSS; in the assay on MDA-MB-231 [2] (shRNA: shPPFIA1_1), 0 DSS; in the assay with MDA-MB-231 [2] (shRNA: shScramble) it was 0 DSS.

For the compound `Nc1nc(N)c2nc(-c3cccc(O)c3)c(-c3cccc(O)c3)nc2n1` [TG100-115], the drug sensitivity score in the assay with MDA-MB-231 [1] (shRNA: shPPFIA1_1) is 0 DSS; with MDA-MB-231 [1] (shRNA: shScramble) it was 0 DSS; with MDA-MB-231 [2] (shRNA: shPPFIA1_1), 5.7 DSS; with MDA-MB-231 [2] (shRNA: shScramble), 19 DSS.

Take `CN[C@@H](C)C(=O)N[C@H](C(=O)N1CCC[C@H]1c1nc(C(=O)c2ccc(F)cc2)cs1)C1CCCCC1` [LCL161]: the drug sensitivity score in the assay on MDA-MB-231 [1] (shRNA: shPPFIA1_1) turned out to be 40.9 DSS; in the assay on MDA-MB-231 [1] (shRNA: shScramble) it was 24.4 DSS; with MDA-MB-231 [2] (shRNA: shPPFIA1_1), 20.5 DSS; in the assay on MDA-MB-231 [2] (shRNA: shScramble), 2.5 DSS.

Take `O=C(Cc1ccc(-c2ccc(OCCN3CCOCC3)cc2)cn1)NCc1ccccc1` [KX2-391]: the drug sensitivity score was found to be 5.5 DSS with MDA-MB-231 [1] (shRNA: shPPFIA1_1), 1.8 DSS in the assay with MDA-MB-231 [1] (shRNA: shScramble), 2.1 DSS with MDA-MB-231 [2] (shRNA: shPPFIA1_1) and 8.2 DSS with MDA-MB-231 [2] (shRNA: shScramble).

Take `CC(C)[C@H](C(=O)Nc1ccc(C(=O)NO)cc1)c1ccccc1` [AR-42]: the drug sensitivity score in the assay with MDA-MB-231 [1] (shRNA: shPPFIA1_1) was 12.6 DSS; with MDA-MB-231 [1] (shRNA: shScramble) it was 7.5 DSS; with MDA-MB-231 [2] (shRNA: shPPFIA1_1), 9.3 DSS; with MDA-MB-231 [2] (shRNA: shScramble), 9.5 DSS.

The record behind these values is the supplement of paper PMC10920090.
